One data set deals with cyclophilin A (Homo sapiens, UniProt P62937). The note with it: background statement; cited from earlier work.
Data set [1] in a line: Stress testing under high photolysis (4500 Lux). The class given is physicochemical.
Details of data set [2]: species or system beagle dogs. Conditions: dog. The protocol:
Pharmacokinetic test of compounds in beagle dogs (weigh: 10-12 kg, male, age: 10-12 months, three members in each oral group and intravenous group) was shown as follows.
Beagle dogs received test compounds at a dose of 2.5 mg/kg or 5 mg/kg by oral gavage or at a dose of 1 mg/kg or 2 mg/kg by intravenous injection.
Blood samples of vein were taken at 0.083, 0.25, 0.5, 1, 2, 4, 6, 8 and 24 hours after the administration, and collected in anticoagulation tube with EDTA-K2. The test compounds were extracted from plasma samples by liquid-liquid extraction. Then quantitative analysis was performed on a triple-quadrupole tandem mass spectrometer using multiple reaction monitoring (MRM). Pharmacokinetic parameters were calculated using a noncompartmental method by WinNonLin 6.3 software.

Details of data set [3]: species or system ICR mice. The note with it: mouse. Here is the method: Pharmacokinetic test of compounds in mice (weigh: 20-25 g, male, age: 45-60 days, three members in each oral group and intravenous group) was shown as follows.
ICR mice received test compounds at a dose of 10 mg/kg by oral gavage or at a dose of 2 mg/kg or 10 mg/kg by tail intravenous injection. Blood samples of orbital vein were taken at 0.083, 0.25, 0.5, 1, 2, 4, 6, 8 and 24 hours after the administration, and collected in anticoagulation tube with EDTA-K2. The test compounds were extracted from plasma samples by liquid-liquid extraction. Then quantitative analysis was performed on a triple-quadrupole tandem mass spectrometer using multiple reaction monitoring (MRM). Pharmacokinetic parameters were calculated using a noncompartmental method by WinNonLin 6.1 software.

Data set [4] relates to con 1b derived bi-cistronic replicon. Nature of the data set: HCV replicon assay, con 1b bi-cistronic replicon. Conditions: Hepatitis C virus, LUC endpoint, 72 hours. The data set is classed as cell-based. From the text:
(§1) The purpose of this study was to assess the potential anti-HCV activity of SCY-635 (free base crystalline form A) in the well-characterized genotype-1 replicon. The first reproducible HCV replication system in cell culture (Huh7 hepatoma cell line) was reported in 1999 (Lohmann et al., 1999). The assay utilizes bi-cistronic subgenomic viral RNAs, or replicons, that encode nonstructural proteins and have the cis RNA elements required for autonomous replication. Replicons are self-replicating RNA molecules that contain all of the nucleotide sequences required for HCV replication, transcription, and translation, but are not infectious.
(§2) SCY-635 (free base crystalline form A) was studied in the HCV Replicon assay to evaluate its ability to inhibit HCV genomic replication. […]
(§3) The compound was dissolved in dimethyl sulfoxide (DMSO) and diluted into culture medium at five half-log concentrations, ranging from either 0.02 to 2.0 μM (for SCY-635), or 0.2 to 20 μM (for CsA). […] EC50 and EC90 values were derived from HCV RNA levels assessed as HCV RNA replicon derived LUC activity. […] IC50 and IC90 values were calculated using a colorimetric assay as an indication of cell numbers and cytotoxicity. […]
(A replicon is a self-replicating genome or part of one, used to study replication in cells.)

The conditions of data set [5]: in vivo.
Details of data set [6]: species or system SD rats. The note with it: rat. Here is the method: Pharmacokinetic test of compounds of the invention in SD rats (weigh: 200-250 g, male, age: 2-3 months, three members in each oral group and intravenous group) was shown as follows. Rats received test crystal form A at a dose of 2.5 mg/kg or 5 mg/kg by oral gavage or at a dose of 1 mg/kg by intravenous injection. Blood samples of vein were taken at 0.083, 0.25, 0.5, 1, 2, 5, 7 and 24 hours after the administration, and collected in anticoagulation tube with EDTA-K2. The test compounds were extracted from plasma samples by liquid-liquid extraction. Then quantitative analysis was performed on a triple-quadrupole tandem mass spectrometer using multiple reaction monitoring (MRM). Pharmacokinetic parameters were calculated using a noncompartmental method by WinNonLin 6.3 software.

Data set [7] has as its system human hepatoma cell line ET (lub ubi neo/ET). Nature of the data set: Cytotoxicity in the replicon assay (colorimetric assay of cell numbers). The note with it: replicon cells, 72 hours.
Source text: SCY-635 (free base crystalline form A) was examined in the human hepatoma cell line ET (lub ubi neo/ET), an HCV RNA replicon containing a stable luciferase (LUC) reporter. The HCV RNA replicon ET contains the 5′ end of HCV (with the HCV Internal Ribosome Entry Site (IRES) and the first few amino acids of the HCV core protein) which drives the production of a firefly luciferase (LUC), ubiquitin, and neomycin phosphotransferase (NeoR) fusion protein. Ubiquitin cleavage releases the LUC and NeoR proteins. The EMCV IRES element controls the translation of the HCV […] NS3-NS5. The NS3 protein cleaves the HCV polyprotein to release the mature NS3, NS4A, NS4B, NS5A and NS5B proteins that are required for HCV replication. The 3′ end of the replicon contains the authentic 3′ NTR of HCV. […]
as §3

For data set [8], the system named is H77 replicon (genotype 1a). Nature of the data set: HCV replicon assay, H77 replicon. The class given is cell-based. The note with it: Hepatitis C virus.
Source text: as §1, §2, §3

The nature of data set [9]: Stress testing under high temperature (60° C.). The data set is classed as physicochemical. The note with it: for Purity / Change of purity in the high temperature test: 60° C.
For data set [10], the system named is con 1b derived full length replicon. Nature of the data set: HCV replicon assay, con 1b full length replicon. The data set is classed as cell-based. Conditions: Hepatitis C virus.
The conditions of data set [11]: monkey, in vivo.
Data set [12] is described as follows: Heating experiments with HPLC purity of heated samples. The data set is classed as physicochemical. Here is the method:
Agilent 1100 HPLC was utilized to measure solubility and purity, method listed in Table 4 and Table 5, respectively. To figure out if a different crystal form of freebase existed at elevated temperature as shown by two endothermic peaks in DSC curve in FIG. 2, heating experiments of the crystalline form A were conducted and HPLC purity of heated samples was also detected. […] Also, lower purity at 150° C. compared with 160° C. was speculated to be related to increasing isothermal time.

Another data set in a line: physchem. The note with it: water, thermodynamic from solid. The data set is classed as physicochemical. The protocol:
Agilent 1100 HPLC was utilized to measure solubility and purity, method listed in Table 4 and Table 5, respectively.
Solubility of the crystalline form A was estimated in six solvents at RT. Approximately 2 mg of solids were weighed into each 3-mL glass vial, to which each of the solvents in Table 8 was added in increments of 100 μL until the solids dissolved completely or the total volume reached 2 mL.

Where [13] appears, read: day 0, listed as The crystalline form A of SCY-635 free base.
The mark [14] stands for this setting: listed as crystalline form A of SCY-635 free base.
Where [15] appears, read: heated to 150 °C, isothermal 20 min.
[16] abbreviates: heated to 160 °C, isothermal 3 min.
The mark [17] stands for this setting: heated to 170 °C, isothermal 2 min.
Setting [18] is: heated to 180 °C, isothermal 3 min.

Each structure is given as a SMILES string. Where “and” joins values, the source holds several entries; their conditions need not be identical. Identical values can stand only once. Like-named read-outs stand apart in the source and are kept apart here. Some results are limits rather than exact numbers.

cyclophilin A, sequence (P62937 whole entry, species assumed): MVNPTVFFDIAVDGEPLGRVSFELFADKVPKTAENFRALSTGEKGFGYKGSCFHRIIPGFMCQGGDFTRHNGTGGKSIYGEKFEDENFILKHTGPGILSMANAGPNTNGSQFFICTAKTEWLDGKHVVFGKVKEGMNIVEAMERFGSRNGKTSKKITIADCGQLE

Turning to `C/C=C/C[C@@H](C)[C@@H](O)[C@H]1C(=O)N[C@@H](CC)C(=O)N(C)[C@H](SCCN(C)C)C(=O)N(C)[C@@H](CC(C)(C)O)C(=O)N[C@@H](C(C)C)C(=O)N(C)[C@@H](CC(C)C)C(=O)N[C@@H](C)C(=O)N[C@H](C)C(=O)N(C)[C@@H](CC(C)C)C(=O)N(C)[C@@H](CC(C)C)C(=O)N(C)[C@@H](C(C)C)C(=O)N1C` [SCY-635], the “Concentration inhibiting peptidyl prolyl isomerase (PPlase) catalytic activity” value at cyclophilin A was “low nanomolar”.
As a reminder, the EC50 is the concentration that produces a half-maximal response. A higher EC50 goes with lower potency in that assay. Broadly, the EC90 is the concentration at which the effect reaches the 90% level. As a reminder, the solubility is how much of the substance goes into solution per volume. With `C/C=C/C[C@@H](C)[C@@H](O)[C@H]1C(=O)N[C@@H](CC)C(=O)N(C)[C@H](SCCN(C)C)C(=O)N(C)[C@@H](CC(C)(C)O)C(=O)N[C@@H](C(C)C)C(=O)N(C)[C@@H](CC(C)C)C(=O)N[C@@H](C)C(=O)N[C@H](C)C(=O)N(C)[C@@H](CC(C)C)C(=O)N(C)[C@@H](CC(C)C)C(=O)N(C)[C@@H](C(C)C)C(=O)N1C` [SCY-635 free base crystalline form A, (3 S,6S,9S,12R,15S,18S,21S,24S,27R,30S,33S)-27-((2-(dimethylamino)ethyl)thio)-30-ethyl-33-((1R,2R,E)-1-hydroxy-2-methylhex-4-en-1-yl)-24-(2-hydroxy-2-methylpropyl)-6,9,18-triisobutyl-3,21-diisopropyl-1,4,7,10,12,15,19,25,28-nonamethyl-1,4,7,10,13,16,19,22,25,28,31-undecaazacyc lotritriacontan-2,5,8,11,14,17,20,23,26,29,32-undecaone], the Purity stood at 98.0% in data set [1] (setting [13]); 98.0% in data set [1] (day 30); 98.0% in data set [9] (setting [13]); 98.1% in [9] (day 10, listed as The crystalline form A of SCY-635 free base); 98.0% in [9] (day 30); 95.6 Area % in data set [12] (setting [15]). Also, the Purity in [12] (setting [16]) is given as 97.6 Area %; in data set [12] (setting [17]), 94.3 Area %; in data set [12] (setting [18]), 88.3 Area %; in data set [12] (starting material, not heated), 100.0 Area %. Besides, in data set [1] (setting [14]), the “Change of purity in the high photolysis test” value is listed as “not changed”. The “Pharmacokinetic properties in vivo” value in data set [2], in data set [3] and in data set [6] was “better pharmacokinetic properties” in each case. Also, the Oral bioavailability entry in data set [2] (in vivo, po) is given as “orally bioavailable”; in data set [3] (in vivo, po) it was “orally bioavailable”; in [5] (human, po), “orally bioavailable”; in [6] (in vivo, po), “orally bioavailable”; in data set [11], “orally bioavailable”. Also, the EC50 in data set [4] is 100 nM and 0.132 µg/mL; in [8], 0.198 µg/mL and 150 nM; in data set [10], 170 nM and 0.225 µg/mL. Also, the EC90 is 350 nM and 0.463 µg/mL in [4]; 1.38 µM and 1.82 µg/mL in data set [8]; 690 nM and 0.912 µg/mL in [10]. In addition, the Pharmacokinetic behavior entry in [5] is reported as “dose-dependent pharmacokinetic behavior”. Also, the “Cell cytotoxicity in the replicon assay” value in data set [7] is “absence of cell cytotoxicity”. Also, the “Change of purity in the high temperature test” value in data set [9] (setting [14]) is recorded as “not changed”. Further, the “Total impurity and major impurities in stress testing” value in data set [9] (high temperature and photolysis conditions) is given as “did not increase”. The Appearance result in data set [12] (setting [15]), in data set [12] (setting [16]), in data set [12] (setting [17]) and in data set [12] (setting [18]) was “Liquated” in each case. In [12] (heated to 160° C.), the “Solid form after heating (XRPD)” value is “converted to be amorphous”. Besides, the solubility in “physchem” was below 1100 µg/mL.
`C/C=C/C[C@@H](C)[C@@H](O)[C@H]1C(=O)N[C@@H](CC)C(=O)N(C)[C@H](SCCN(C)C)C(=O)N(C)[C@@H](CC(C)(C)O)C(=O)N[C@@H](C(C)C)C(=O)N(C)[C@@H](CC(C)C)C(=O)N[C@@H](C)C(=O)N[C@H](C)C(=O)N(C)[C@@H](CC(C)C)C(=O)N(C)[C@@H](CC(C)C)C(=O)N(C)[C@@H](C(C)C)C(=O)N1C` [The amorphous form of SCY-635 free base]: in [1], the “Change of purity in the high photolysis test” value is reported as “continued to decrease”. For the same compound, the Purity in [1] (day 0) is given as 98.2%; in data set [1] (day 10), 98.1%; in [1] (day 50), 98.0%; in data set [9] (day 0), 98.2%; in data set [9] (day 10) it was 97.9%; in data set [9] (day 50), 97.7%. For the same compound, the “Change of purity in the high temperature test” value in data set [9] is on record as “continued to decrease”.

The values are drawn from patent US11993664B2, “Crystalline form of compound and uses thereof in medicine” (priority 2018, dated 2024).
